Where “and” joins values, the source holds several entries; their conditions need not be identical. Equal entries are not always repeated. Where two headings read alike, the source gives them in different places.
Tests used:
SARS2 = assay type: cell-based, SARS-CoV-2; details: for Percentage Infection Relative to Appropriate DMSO Control with Avg Background Subtraction: Greiner Celigo plates; for Percentage Inhibition Average 1 μM / Screening data (Relative infection to DMSO controls) Average 1 μM: SARS2, 1 μM; for Screening data (Relative infection to DMSO controls) Average 1 μM / Screening data (Relative infection to DMSO controls) Average 5 μM / Screening data (Relative infection to DMSO controls) Average 10 μM / Screening data (Relative infection to DMSO controls) Average 25 μM / Screening data (Relative infection to DMSO controls) Average 50 μM / Average (relative infection to DMSO over the 5 tested concentrations): 100=DMSO control; for Percentage Inhibition Average 5 μM / Screening data (Relative infection to DMSO controls) Average 5 μM: SARS2, 5 μM; for Percentage Inhibition Average 10 μM / Screening data (Relative infection to DMSO controls) Average 10 μM: SARS2, 10 μM; for Percentage Inhibition Average 25 μM / Screening data (Relative infection to DMSO controls) Average 25 μM: SARS2, 25 μM; for Percentage Inhibition Average 50 μM / Screening data (Relative infection to DMSO controls) Average 50 μM: SARS2, 50 μM; for Average (relative infection to DMSO over the 5 tested concentrations): SARS2, average over 1 to 50 uM; for Infection Data, Average, Mean: average of Exp 1-3 (SMW475, SMW477, SMW478)
cells (nuclei count) = details: for Relative cell count to DMSO controls, Average 1 μM / Relative cell count to DMSO controls, Average 5 μM / Relative cell count to DMSO controls, Average 10 μM / Relative cell count to DMSO controls, Average 25 μM / Relative cell count to DMSO controls, Average 50 μM: toxicity data, 100=DMSO control; for Toxicity Data, Average, Mean: average of Exp 1-3 (SMW475, SMW477, SMW478); for Relative cell count to DMSO controls, Average (for correlation analysis): average value over the 5 tested concentrations (1 to 50 uM)

SMILES: CCN(CC)CCN(Cc1ccccn1)Cc1ccc(C)o1 [SILCS36]
- Percentage Infection Relative to Appropriate DMSO Control with Avg Background Subtraction (SARS2; Exp 1 (SMW475), 1 uM): 112.32% and 102.95% and 77.60%
- Percentage Infection Relative to Appropriate DMSO Control with Avg Background Subtraction (SARS2; Exp 1 (SMW475), 5 uM): 103.78% and 96.97% and 70.88%
- Percentage Infection Relative to Appropriate DMSO Control with Avg Background Subtraction (SARS2; Exp 1 (SMW475), 10 uM): 100.05% and 88.33% and 67.06%
- Percentage Infection Relative to Appropriate DMSO Control with Avg Background Subtraction (SARS2; Exp 1 (SMW475), 25 uM): 42.48% and 40.16% and 33.52%
- Percentage Infection Relative to Appropriate DMSO Control with Avg Background Subtraction (SARS2; Exp 2 (SMW477), 1 uM): 136.49% and 133.25% and 131.77%
- Percentage Infection Relative to Appropriate DMSO Control with Avg Background Subtraction (SARS2; Exp 2 (SMW477), 5 uM): 140.43% and 143.68% and 122.53%
- Percentage Infection Relative to Appropriate DMSO Control with Avg Background Subtraction (SARS2; Exp 2 (SMW477), 10 uM): 111.26% and 112.57% and 100.88%
- Percentage Infection Relative to Appropriate DMSO Control with Avg Background Subtraction (SARS2; Exp 2 (SMW477), 25 uM): 70.58% and 67.21% and 40.18%
- Percentage Infection Relative to Appropriate DMSO Control with Avg Background Subtraction (SARS2; Exp 3 (SMW478), 1 uM): 116.69% and 121.41% and 101.10%
- Percentage Infection Relative to Appropriate DMSO Control with Avg Background Subtraction (SARS2; Exp 3 (SMW478), 5 uM): 103.27% and 118.27% and 106.75%
- Percentage Infection Relative to Appropriate DMSO Control with Avg Background Subtraction (SARS2; Exp 3 (SMW478), 10 uM): 99.80% and 128.16% and 117.51%
- Percentage Inhibition Average 1 μM (SARS2): −14.84%
- Screening data (Relative infection to DMSO controls) Average 1 μM (SARS2): 114.84
- Percentage Inhibition Average 5 μM (SARS2): −11.84%
- Screening data (Relative infection to DMSO controls) Average 5 μM (SARS2): 111.84
- Percentage Inhibition Average 10 μM (SARS2): −2.85%
- Screening data (Relative infection to DMSO controls) Average 10 μM (SARS2): 102.85
- Percentage Inhibition Average 25 μM (SARS2): 42.56%
- Screening data (Relative infection to DMSO controls) Average 25 μM (SARS2): 57.44
- Percentage Inhibition Average 50 μM (SARS2): 72.63%
- Screening data (Relative infection to DMSO controls) Average 50 μM (SARS2): 27.37
- Average (relative infection to DMSO over the 5 tested concentrations) (SARS2): 82.87
- Infection Data, Average, Mean (SARS2; n 9, 1 uM): 114.84%
- Infection Data, Average, Mean (SARS2; n 9, 5 uM): 111.84%
- Infection Data, Average, Mean (SARS2; n 9, 10 uM): 102.85%
- Infection Data, Average, Mean (SARS2; n 9, 25 uM): 57.44%
- Infection Data, Average, Mean (SARS2; n 9, 50 uM): 27.37%
- Relative cell count to DMSO controls, Average 1 μM (cells (nuclei count)): 87.6
- Relative cell count to DMSO controls, Average 5 μM (cells (nuclei count)): 84.91
- Relative cell count to DMSO controls, Average 10 μM (cells (nuclei count)): 88.15
- Relative cell count to DMSO controls, Average 25 μM (cells (nuclei count)): 91.83
- Relative cell count to DMSO controls, Average 50 μM (cells (nuclei count)): 63.21
- Toxicity Data, Average, Mean (cells (nuclei count); n 9, 1 uM): 87.60%
- Toxicity Data, Average, Mean (cells (nuclei count); n 9, 5 uM): 84.91%
- Toxicity Data, Average, Mean (cells (nuclei count); n 9, 10 uM): 88.15%
- Toxicity Data, Average, Mean (cells (nuclei count); n 9, 25 uM): 91.83%
- Toxicity Data, Average, Mean (cells (nuclei count); n 9, 50 uM): 63.21%
- Relative cell count to DMSO controls, Average (for correlation analysis) (cells (nuclei count)): 83.14

SMILES: Cc1ccc(CN(CCN(C)C)Cc2ccc(C)s2)o1 [SILCS7]
- Percentage Inhibition Average 1 μM (SARS2): 6.07%
- Screening data (Relative infection to DMSO controls) Average 1 μM (SARS2): 93.93
- Percentage Inhibition Average 5 μM (SARS2): 7.19%
- Screening data (Relative infection to DMSO controls) Average 5 μM (SARS2): 92.81
- Percentage Inhibition Average 10 μM (SARS2): 42.29%
- Screening data (Relative infection to DMSO controls) Average 10 μM (SARS2): 57.71
- Percentage Inhibition Average 25 μM (SARS2): 58.04%
- Screening data (Relative infection to DMSO controls) Average 25 μM (SARS2): 41.96
- Percentage Inhibition Average 50 μM (SARS2): 68.91%
- Screening data (Relative infection to DMSO controls) Average 50 μM (SARS2): 31.09
- Average (relative infection to DMSO over the 5 tested concentrations) (SARS2): 63.50
- Relative cell count to DMSO controls, Average 1 μM (cells (nuclei count)): 110.82
- Relative cell count to DMSO controls, Average 5 μM (cells (nuclei count)): 103.66
- Relative cell count to DMSO controls, Average 10 μM (cells (nuclei count)): 106.58
- Relative cell count to DMSO controls, Average 25 μM (cells (nuclei count)): 103.49
- Relative cell count to DMSO controls, Average 50 μM (cells (nuclei count)): 73.73
- Toxicity Data, Average, Mean (relative to DMSO control) (cells (nuclei count); Average of Exp 1-3, 1 uM): 110.82%
- Toxicity Data, Average, Mean (relative to DMSO control) (cells (nuclei count); Average of Exp 1-3, 5 uM): 103.66%
- Toxicity Data, Average, Mean (relative to DMSO control) (cells (nuclei count); Average of Exp 1-3, 10 uM): 106.58%
- Toxicity Data, Average, Mean (relative to DMSO control) (cells (nuclei count); Average of Exp 1-3, 25 uM): 103.49%
- Toxicity Data, Average, Mean (relative to DMSO control) (cells (nuclei count); Average of Exp 1-3, 50 uM): 73.73%
- Relative cell count to DMSO controls, Average (for correlation analysis) (cells (nuclei count)): 99.66

SMILES: COc1ccc(C2NC(=O)NC(C)=C2C(=O)NCC2CCCCC2)cc1OC (stereo not drawn) [SILCS63]
- Percentage Inhibition Average 1 μM (SARS2): 19.08%
- Screening data (Relative infection to DMSO controls) Average 1 μM (SARS2): 80.92
- Percentage Inhibition Average 5 μM (SARS2): 53.97%
- Screening data (Relative infection to DMSO controls) Average 5 μM (SARS2): 46.03
- Percentage Inhibition Average 10 μM (SARS2): 7.81%
- Screening data (Relative infection to DMSO controls) Average 10 μM (SARS2): 92.19
- Percentage Inhibition Average 25 μM (SARS2): −18.04%
- Screening data (Relative infection to DMSO controls) Average 25 μM (SARS2): 118.04
- Percentage Inhibition Average 50 μM (SARS2): −21.48%
- Screening data (Relative infection to DMSO controls) Average 50 μM (SARS2): 121.48
- Average (relative infection to DMSO over the 5 tested concentrations) (SARS2): 91.73
- Relative cell count to DMSO controls, Average 1 μM (cells (nuclei count)): 106.9
- Relative cell count to DMSO controls, Average 5 μM (cells (nuclei count)): 114.55
- Relative cell count to DMSO controls, Average 10 μM (cells (nuclei count)): 101.91
- Relative cell count to DMSO controls, Average 25 μM (cells (nuclei count)): 91.46
- Relative cell count to DMSO controls, Average 50 μM (cells (nuclei count)): 78.57
- Relative cell count to DMSO controls, Average (for correlation analysis) (cells (nuclei count)): 98.68

SMILES: CC1=C(C(=O)NCC2CCCCC2)C(c2cc(C)c(Br)s2)NC(=O)N1 (stereo not drawn) [SILCS68]
- Percentage Inhibition Average 1 μM (SARS2): 32.72%
- Screening data (Relative infection to DMSO controls) Average 1 μM (SARS2): 67.28
- Percentage Inhibition Average 5 μM (SARS2): 28.63%
- Screening data (Relative infection to DMSO controls) Average 5 μM (SARS2): 71.37
- Percentage Inhibition Average 10 μM (SARS2): 16.60%
- Screening data (Relative infection to DMSO controls) Average 10 μM (SARS2): 83.40
- Percentage Inhibition Average 25 μM (SARS2): −10.69%
- Screening data (Relative infection to DMSO controls) Average 25 μM (SARS2): 110.69
- Percentage Inhibition Average 50 μM (SARS2): 20.80%
- Screening data (Relative infection to DMSO controls) Average 50 μM (SARS2): 79.20
- Average (relative infection to DMSO over the 5 tested concentrations) (SARS2): 82.39
- Relative cell count to DMSO controls, Average 1 μM (cells (nuclei count)): 117.26
- Relative cell count to DMSO controls, Average 5 μM (cells (nuclei count)): 114.63
- Relative cell count to DMSO controls, Average 10 μM (cells (nuclei count)): 110.48
- Relative cell count to DMSO controls, Average 25 μM (cells (nuclei count)): 100.14
- Relative cell count to DMSO controls, Average 50 μM (cells (nuclei count)): 91.82
- Relative cell count to DMSO controls, Average (for correlation analysis) (cells (nuclei count)): 106.87

SMILES: COc1ccc(-c2[nH]ncc2C(=O)NCC2CCC2)cc1OC [SILCS54]
- Percentage Inhibition Average 1 μM (SARS2): 0.61%
- Screening data (Relative infection to DMSO controls) Average 1 μM (SARS2): 99.39
- Percentage Inhibition Average 5 μM (SARS2): 7.12%
- Screening data (Relative infection to DMSO controls) Average 5 μM (SARS2): 92.88
- Percentage Inhibition Average 10 μM (SARS2): 10.70%
- Screening data (Relative infection to DMSO controls) Average 10 μM (SARS2): 89.30
- Percentage Inhibition Average 25 μM (SARS2): −5.10%
- Screening data (Relative infection to DMSO controls) Average 25 μM (SARS2): 105.10
- Percentage Inhibition Average 50 μM (SARS2): −13.08%
- Screening data (Relative infection to DMSO controls) Average 50 μM (SARS2): 113.08
- Average (relative infection to DMSO over the 5 tested concentrations) (SARS2): 99.95
- Relative cell count to DMSO controls, Average 1 μM (cells (nuclei count)): 100.58
- Relative cell count to DMSO controls, Average 5 μM (cells (nuclei count)): 101.65
- Relative cell count to DMSO controls, Average 10 μM (cells (nuclei count)): 100.51
- Relative cell count to DMSO controls, Average 25 μM (cells (nuclei count)): 99.71
- Relative cell count to DMSO controls, Average 50 μM (cells (nuclei count)): 88.29
- Relative cell count to DMSO controls, Average (for correlation analysis) (cells (nuclei count)): 98.15

Source: patent US20240132484A1, “BROAD SPECTRUM ANTIVIRAL COMPOUNDS TARGETING THE SKI COMPLEX” (priority 2020, published 2024)
